Assay: Change of crystal form by heating, friction or suspension in a solvent
Type: physicochemical
Excerpt: In the present invention, for the discrimination of the crystal form, a powder X-ray diffraction measurement, a differential thermal analysis, ^13C CP/TOSS NMR, a Raman spectroscopy, and the like are effective, however, the method for the discrimination is not limited to these measurement methods.
• Apparatus: MXLabo (manufactured by Mac Science Corporation (present: Bruker AXS, Inc.)) • Ray source: Cu • Wavelength: 1.54056A • Goniometer: vertical-type goniometer • Tube voltage: 40.0 kV • Tube current: 30 mA • Measuring method: continuous method • Data range: 3.0400 to 40.0000 deg • Scanning axis: 2θ/θ • Sampling interval: 0.0400 deg • Scanning rate: 3.600 deg/min. • Emission slit: 1.00 deg • Scattering slit: 1.00 deg • Receiving slit: 0.15 mm • RSM: 0.80 mm
• Apparatus: TG 8120 (manufactured by Rigaku Corporation) • Temperature elevation: 20° C. to 300° C. at an elevation rate of 5° C./min • Atmosphere: Air • Reference: Al2O3 • Vessel: Al vessel • Sampling: 1 sec

Row | change of crystal form by heating or friction | change of crystal form by heating | Compound | change of crystal form on suspending in a solvent and stirring (suspended in a solvent, stirred)
1 | not observed |  | COc1cc(OC)nc(NC(=O)NS(=O)(=O)c2c(C3=NOCC(C)O3)c(Cl)nn2C)n1 (stereo not shown) [crystal form A, 3-chloro-N-(4,6-dimethoxypyrimidine-2-ylcarbamoyl)-1-methyl-4-(5-methyl-5,6-dihydro-1,4,2-dioxazine-3-yl)-1H-pyrazole-5-sulfonamide] | 
2 |  | not observed | COc1cc(OC)nc(NC(=O)NS(=O)(=O)c2c(C3=NOCC(C)O3)c(Cl)nn2C)n1 (stereo not shown) [crystal form B, 3-chloro-N-(4,6-dimethoxypyrimidine-2-ylcarbamoyl)-1-methyl-4-(5-methyl-5,6-dihydro-1,4,2-dioxazine-3-yl)-1H-pyrazole-5-sulfonamide] | transits to be converted into the crystal form A
3 | transits to the crystal form A or B |  | COc1cc(OC)nc(NC(=O)NS(=O)(=O)c2c(C3=NOCC(C)O3)c(Cl)nn2C)n1 (stereo not shown) [crystal form C, 3-chloro-N-(4,6-dimethoxypyrimidine-2-ylcarbamoyl)-1-methyl-4-(5-methyl-5,6-dihydro-1,4,2-dioxazine-3-yl)-1H-pyrazole-5-sulfonamide] | 
4 |  | transits to the crystal form A | COc1cc(OC)nc(NC(=O)NS(=O)(=O)c2c(C3=NOCC(C)O3)c(Cl)nn2C)n1 (stereo not shown) [crystal form D, 3-chloro-N-(4,6-dimethoxypyrimidine-2-ylcarbamoyl)-1-methyl-4-(5-methyl-5,6-dihydro-1,4,2-dioxazine-3-yl)-1H-pyrazole-5-sulfonamide] | 
5 | transits to the crystal form A |  | COc1cc(OC)nc(NC(=O)NS(=O)(=O)c2c(C3=NOCC(C)O3)c(Cl)nn2C)n1 (stereo not shown) [crystal form E, 3-chloro-N-(4,6-dimethoxypyrimidine-2-ylearbamoyl)-1-methyl-4-(5-methyl-5,6-dihydro-1,4,2-dioxazine-3-yl)-1H-pyrazole-5-sulfonamide] | 
6 | transits to the crystal form A |  | COc1cc(OC)nc(NC(=O)NS(=O)(=O)c2c(C3=NOCC(C)O3)c(Cl)nn2C)n1 (stereo not shown) [crystal form F, 3-chloro-N-(4,6-dimethoxypyrimidine-2-ylcarbamoyl)-1-methyl-4-(5-methyl-5,6-dihydro-1,4,2-dioxazine-3-yl)-1H-pyrazole-5-sulfonamide] | 

Source: patent US20120220461A1, “CRYSTAL FORMS OF SULFONYLUREA COMPOUND AND METHOD FOR PRODUCING THE SAME” (NISSAN CHEMICAL INDUSTRIES, LTD., priority 2009, published 2012)
